Calls of active or inactive are those of the source. The calls are words filed in the database; no cut-off is given here.
Assays:
Huh-7 [1] = experiment: Induction of mitochondrial membrane potential depolarization in human Huh-7 cells incubated for 24 hrs by TMRE staining based flow cytometry analysis; assay type: functional, cell-based; conditions: dose 0.9-8.1 µM
Huh-7 [2] = experiment: Induction of apoptosis in human Huh-7 cells assessed as inhibition of caspase-3 expression incubated for 48 hrs by Western blotting analysis; assay type: functional, cell-based; conditions: dose 0.9-8.1 µM
Huh-7 [3] = experiment: Inhibition of colony formation in human Huh-7 cells assessed as reduction in number of cell colonies at 0.55 to 2.2 uM measured after 10 and 14 days by crystal violet staining based light microscopic analysis; assay type: functional; conditions: dose 0.55-2.2 µM, time 14.0 day
[4] = target: Serine/threonine-protein kinase mTOR (Homo sapiens) (UniProt P42345); experiment: Inhibition of mTOR signalling pathway in human Huh-7 cells assessed as inhibition of mTOR phosphorylation at 0.9 to 8.1 uM measured after 48 hrs by Western blotting analysis; assay type: cell-based; conditions: dose 0.9-8.1 µM
SK-HEP1 [5] = experiment: Inhibition of colony formation in human SK-HEP1 cells assessed as reduction in number of cell colonies at 1.25 to 5 uM measured after 10 and 14 days by crystal violet staining based light microscopic analysis; assay type: functional; conditions: dose 1.25-5 µM, time 14.0 day
Huh-7 [6] = experiment: Antitumor activity against human Huh-7 cells xenografted in BALB/c mouse assessed as reduction in tumor volume at 15 to 30 mg/kg, ip qd; assay type: functional, organism-based; conditions: dose 15-30 mg/kg, time 14.0 day, TDE = time-dependent effect
Huh-7 [7] = experiment: Induction of apoptosis in human Huh-7 cells assessed as genomic DNA fragmentation at 0.9 to 8.1 uM incubated for 24 hrs by giemsa staining based micrscopic analysis; assay type: functional, cell-based; conditions: dose 0.9-8.1 µM
Huh-7 [8] = experiment: Induction of apoptosis in human Huh-7 cells assessed as chromatin condensation at 0.9 to 8.1 uM incubated for 24 hrs by giemsa staining based micrscopic analysis; assay type: functional, cell-based; conditions: dose 0.9-8.1 µM
SK-HEP1 [9] = experiment: Induction of cell cycle arrest in human SK-HEP1 cells assessed as decrease in cyclin A expression incubated for 48 hrs by Western blotting analysis; assay type: functional, cell-based; conditions: dose 1.5-13.5 µM
[10] = Acute toxicity in BALB/c mouse assessed as change in body weight at 650 mg/kg, ip measured after 14 days; assay type: organism-based; conditions: in vivo, 336 h, time 14 day
Huh-7 [11] = experiment: Antitumor activity against human Huh-7 cells xenografted in ip dosed BALB/c mouse assessed as reduction in tumor weight measured after 14 days; assay type: functional, organism-based; conditions: dose 15-30 mg/kg, time 14.0 day
SK-HEP1 [12] = experiment: Inhibition of cell migration in human SK-HEP1 cells incubated for 24 hrs by scratch wound healing assay; assay type: functional, cell-based; conditions: dose 1.25-5 µM
SK-HEP1 [13] = experiment: Induction of apoptosis in human SK-HEP1 cells assessed as increase in proportion of early apoptosis at 1.5 to 13.5 uM incubated for 24 hrs by Annexin V-AbFluor 488/propidium iodide staining based flow cytometry analysis; assay type: functional, cell-based; conditions: dose 1.5-13.5 µM
Huh-7 [14] = experiment: Induction of apoptosis in human Huh-7 cells assessed as increase in Bax expression at 0.9 to 8.1 uM incubated for 48 hrs by Western blotting analysis; assay type: functional, cell-based; conditions: dose 0.9-8.1 µM
[15] = target: Serine/threonine-protein kinase mTOR (Homo sapiens) (UniProt P42345); experiment: Inhibition of mTOR signalling pathway in human SK-HEP1 cells assessed as inhibition of mTOR phosphorylation at 1.5 to 13.5 uM measured after 48 hrs by Western blotting analysis; assay type: cell-based; conditions: dose 1.5-13.5 µM
SK-HEP1 [16] = experiment: Induction of ROS production in human SK-HEP1 cells assessed as increase in intracellular ROS level at 1.5 to 13.5 uM incubated for 24 hrs by DCFH-DA staining based fluorescence assay; assay type: functional, cell-based; conditions: dose 1.5-13.5 µM
SK-HEP1 [17] = experiment: Induction of apoptosis in human SK-HEP1 cells assessed as formation of apoptotic bodies at 1.5 to 13.5 uM incubated for 24 hrs by giemsa staining based micrscopic analysis; assay type: functional, cell-based; conditions: dose 1.5-13.5 µM
SK-HEP1 [18] = experiment: Induction of apoptosis in human SK-HEP1 cells assessed as increase in cleaved caspase-9 expression at 1.5 to 13.5 uM incubated for 48 hrs by Western blotting analysis; assay type: functional, cell-based; conditions: dose 1.5-13.5 µM
Huh-7 [19] = experiment: Antitumor activity against human Huh-7 cells xenografted in BALB/c mouse assessed as tumor growth inhibition at 15 mg/kg, ip qd measured after 14 days; assay type: functional; conditions: Huh-7, 336 h, time 14 day, read-out: TGI
SK-HEP1 [20] = experiment: Induction of apoptosis in human SK-HEP1 cells assessed as nuclear membrane breakdown at 1.5 to 13.5 uM incubated for 24 hrs by giemsa staining based micrscopic analysis; assay type: functional, cell-based; conditions: dose 1.5-13.5 µM
Huh-7 [21] = experiment: Induction of apoptosis in human Huh-7 cells assessed as nuclear membrane breakdown at 0.9 to 8.1 uM incubated for 24 hrs by giemsa staining based micrscopic analysis; assay type: functional, cell-based; conditions: dose 0.9-8.1 µM
Huh-7 [22] = experiment: Induction of cell cycle arrest in human Huh-7 cells assessed as increase in accumulation of cells at G2/M phase incubated for 24 hrs by propidium iodide staining based flow cytometry analysis; assay type: functional; conditions: dose 0.9-8.1 µM
Huh-7 [23] = experiment: Induction of apoptosis in human Huh-7 cells assessed as increase in proportion of early apoptosis at 0.9 to 8.1 uM incubated for 24 hrs by Annexin V-AbFluor 488/propidium iodide staining based flow cytometry analysis; assay type: functional, cell-based; conditions: dose 0.9-8.1 µM
Huh-7 [24] = experiment: Induction of apoptosis in human Huh-7 cells assessed as increase in cleaved caspase-9 expression at 0.9 to 8.1 uM incubated for 48 hrs by Western blotting analysis; assay type: functional, cell-based; conditions: dose 0.9-8.1 µM
SK-HEP1 [25] = experiment: Antiproliferative activity against human SK-HEP1 cells assessed as inhibition of cell growth measured after 72 hrs by MTT assay; assay type: functional, cell-based
HCCLM9 = experiment: Antiproliferative activity against human HCCLM9 cells assessed as inhibition of cell growth measured after 72 hrs by MTT assay; assay type: functional, cell-based; conditions: HCCLM9, 72 h
Huh-7 [26] = experiment: Antitumor activity against human Huh-7 cells xenografted in BALB/c mouse assessed as reduction in tumor weight at 15 to 30 mg/kg, ip qd; assay type: functional, organism-based; conditions: dose 15-30 mg/kg, time 14.0 day, TDE = time-dependent effect
Huh-7 [27] = experiment: Induction of apoptosis in human Huh-7 cells assessed as formation of apoptotic bodies at 0.9 to 8.1 uM incubated for 24 hrs by giemsa staining based micrscopic analysis; assay type: functional, cell-based; conditions: dose 0.9-8.1 µM
Huh-7 [28] = experiment: Induction of cell cycle arrest in human Huh-7 cells assessed as decrease in CDK1 expression incubated for 48 hrs by Western blotting analysis; assay type: functional, cell-based; conditions: dose 0.9-8.1 µM
SK-HEP1 [29] = experiment: Induction of apoptosis in human SK-HEP1 cells assessed as increase in proportion of late apoptosis at 1.5 to 13.5 uM incubated for 24 hrs by Annexin V-AbFluor 488/propidium iodide staining based flow cytometry analysis; assay type: functional, cell-based; conditions: dose 1.5-13.5 µM
SK-HEP1 [30] = experiment: Induction of cell cycle arrest in human SK-HEP1 cells assessed as decrease in accumulation of cells at G0/G1 phase incubated for 24 hrs by propidium iodide staining based flow cytometry analysis; assay type: functional; conditions: dose 1.5-13.5 µM
[31] = target: Serine/threonine-protein kinase AKT (Homo sapiens) (UniProt P31751+Q9Y243+P31749); experiment: Inhibition of Akt signalling pathway in human SK-HEP1 cells assessed as inhibition of Akt phosphorylation at 1.5 to 13.5 uM measured after 48 hrs by Western blotting analysis; assay type: cell-based; conditions: dose 1.5-13.5 µM
Chain of Serine/threonine-protein kinase AKT (Homo sapiens) (P31749 whole entry, looked up): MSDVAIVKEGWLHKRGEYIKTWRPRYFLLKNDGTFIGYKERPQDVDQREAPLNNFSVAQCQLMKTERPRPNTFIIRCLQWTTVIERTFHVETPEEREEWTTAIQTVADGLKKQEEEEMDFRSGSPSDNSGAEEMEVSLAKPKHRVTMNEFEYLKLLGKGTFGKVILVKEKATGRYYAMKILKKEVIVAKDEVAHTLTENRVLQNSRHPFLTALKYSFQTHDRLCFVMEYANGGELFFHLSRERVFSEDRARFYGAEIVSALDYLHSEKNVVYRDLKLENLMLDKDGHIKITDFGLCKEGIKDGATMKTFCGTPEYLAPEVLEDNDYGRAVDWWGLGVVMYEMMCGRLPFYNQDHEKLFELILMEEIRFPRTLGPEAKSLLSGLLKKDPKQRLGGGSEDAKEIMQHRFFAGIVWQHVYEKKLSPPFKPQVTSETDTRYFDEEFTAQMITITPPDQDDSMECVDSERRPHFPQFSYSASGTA
Chain of Serine/threonine-protein kinase AKT (Homo sapiens) (P31751 whole entry, looked up): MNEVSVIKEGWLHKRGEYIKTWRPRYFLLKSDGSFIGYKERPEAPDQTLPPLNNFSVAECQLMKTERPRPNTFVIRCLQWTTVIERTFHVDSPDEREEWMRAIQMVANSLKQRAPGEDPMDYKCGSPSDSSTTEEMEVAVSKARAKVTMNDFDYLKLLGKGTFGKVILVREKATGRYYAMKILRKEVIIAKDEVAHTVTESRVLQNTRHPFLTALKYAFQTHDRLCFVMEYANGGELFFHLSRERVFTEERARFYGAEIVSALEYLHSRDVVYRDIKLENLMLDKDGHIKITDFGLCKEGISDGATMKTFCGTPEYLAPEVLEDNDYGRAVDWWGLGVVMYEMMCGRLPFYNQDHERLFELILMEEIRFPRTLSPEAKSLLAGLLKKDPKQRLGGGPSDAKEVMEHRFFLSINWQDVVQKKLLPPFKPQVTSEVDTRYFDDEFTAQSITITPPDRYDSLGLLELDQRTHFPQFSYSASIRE
Chain of Serine/threonine-protein kinase AKT (Homo sapiens) (Q9Y243 whole entry, looked up): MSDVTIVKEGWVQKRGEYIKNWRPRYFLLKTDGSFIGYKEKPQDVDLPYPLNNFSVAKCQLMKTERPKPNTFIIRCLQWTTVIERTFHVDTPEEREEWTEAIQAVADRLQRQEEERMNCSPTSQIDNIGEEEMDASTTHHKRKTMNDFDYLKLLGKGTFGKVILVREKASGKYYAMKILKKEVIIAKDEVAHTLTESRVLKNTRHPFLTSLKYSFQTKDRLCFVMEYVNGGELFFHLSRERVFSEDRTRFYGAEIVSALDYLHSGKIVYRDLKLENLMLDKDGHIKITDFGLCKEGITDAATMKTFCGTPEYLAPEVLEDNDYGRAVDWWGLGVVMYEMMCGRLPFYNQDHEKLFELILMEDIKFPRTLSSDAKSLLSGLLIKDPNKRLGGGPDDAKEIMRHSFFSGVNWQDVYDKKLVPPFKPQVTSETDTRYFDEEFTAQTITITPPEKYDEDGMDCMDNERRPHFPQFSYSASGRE

SK-HEP1 [32] = experiment: Induction of cell cycle arrest in human SK-HEP1 cells assessed as decrease in cyclin B1 expression incubated for 48 hrs by Western blotting analysis; assay type: functional, cell-based; conditions: dose 1.5-13.5 µM
Huh-7 [33] = experiment: Induction of apoptosis in human Huh-7 cells assessed as increase in cleaved caspase-3 expression at 0.9 to 8.1 uM incubated for 48 hrs by Western blotting analysis; assay type: functional, cell-based; conditions: dose 0.9-8.1 µM
Huh-7 [34] = experiment: Induction of cell cycle arrest in human Huh-7 cells assessed as decrease in cyclin B1 expression incubated for 48 hrs by Western blotting analysis; assay type: functional, cell-based; conditions: dose 0.9-8.1 µM

CC(=O)Oc1ccccc1/C=C/c1nccc2ccccc12
Activity (Huh-7 [1]): Dose-Dependent Effect
Activity (Huh-7 [2]): Dose-Dependent Effect
inhibition (Huh-7 [3]): Active
Activity [4]: Active
inhibition (SK-HEP1 [5]): Active
Activity (Huh-7 [6]): Tde
Activity (Huh-7 [7]): Active
Activity (Huh-7 [8]): Active
Activity (SK-HEP1 [9]): Dose-Dependent Effect
Activity [10]: Non-Toxic
Activity (Huh-7 [11]): Dose-Dependent Effect
inhibition (SK-HEP1 [12]): Dose-Dependent Effect
Activity (SK-HEP1 [13]): Active
Activity (Huh-7 [14]): Active
inhibition [15]: Active
Activity (SK-HEP1 [16]): Active
Activity (SK-HEP1 [17]): Active
Activity (SK-HEP1 [18]): Active
inhibition in vivo at 15 mg/kg (Huh-7 [19]): 27.4%
Activity (SK-HEP1 [20]): Active
Activity (Huh-7 [21]): Active
Activity (Huh-7 [22]): Dose-Dependent Effect
Activity (Huh-7 [23]): Active
Activity (Huh-7 [24]): Active
Activity (SK-HEP1 [25]): Dose-Dependent Effect
IC50 (SK-HEP1 [25]; SK-HEP1, 72 h): 4.2 µM
IC50 (HCCLM9): 6.14 µM
Activity (Huh-7 [26]): Tde
Activity (Huh-7 [27]): Active
Activity (Huh-7 [28]): Dose-Dependent Effect
Activity (SK-HEP1 [29]): Active
Activity (SK-HEP1 [30]): Dose-Dependent Effect
inhibition [31]: Active
Activity (SK-HEP1 [32]): Dose-Dependent Effect
Activity (Huh-7 [33]): Active
Activity (Huh-7 [34]): Dose-Dependent Effect

— ChEMBL document CHEMBL5370544, “Design, synthesis, and biological evaluation of 1-styrenyl isoquinoline derivatives for anti-hepatocellular carcinoma activity and effect on mitochondria” (Eur J Med Chem, 2023)
